Assays:
Cdk2/CyclinE = Cdk2/CyclinE (Homo sapiens, UniProt P24941); experiment: In vitro dose-response kinase inhibition assay; format: biochemical
Method: (§1) In vitro phosphorylation reactions were conducted as dose-response kinase inhibition assays with three highly homologous CDKs, namely, Cdk2/CyclinE (1.5 nM), CDK5/p25 (0.35 nM), and Cdk9/CyclinT1 (9 nM). Briefly, the abovementioned kinases were incubated with ATP (30 μM), the corresponding substrate (20 μM), and an increasing concentration of 25–106 (0–5 μM) for 30 min.

CDK5/p25 = CDK5/p25 (Homo sapiens, UniProt Q00535); experiment: In vitro dose-response kinase inhibition assay; format: biochemical
Method: as §1

Cdk9/CyclinT1 = Cdk9/CyclinT1 (Homo sapiens, UniProt P50750); experiment: In vitro dose-response kinase inhibition assay; format: biochemical; conditions: 30 min, ATP 30 μM
Method: as §1

Cdk5 = molecular target: T1, Cdk5 (Mus musculus, UniProt P49615); experiment: In vivo Cdk5 inhibition after I.V. injection, immunoblot of striatal phospho-Ser549 synapsin I; conditions: for phospho-Ser549 synapsin I levels in the striatum: 50 mg/kg I.V.
T1 construct: from tissue; host or cells: striatum of wild-type C57BL/6 mice (acute slices, or lysates after I.V. dosing)
Method: The wild-type group housed male C57BL/6 mice 10–12 weeks of age were used for all in vivo, ex vivo, and behavioral studies. This age range was selected to be consistent with previous studies of conditional Cdk5 knockout mice ([Plattner et al., 2015]). 25–106 was administered in a 20-fold dose range intravenously (I.V.) at 10, 50, 100, and 200 mg/kg for pharmacokinetic studies. This delivery mode was used as I.V. injections to avoid first-pass drug metabolism observed using other injection methods ([Pond and Tozer, 1984]). […] All animal experiments were performed under approved protocols by the University of Alabama at Birmingham (UAB) Institutional Animal Care and Use Committees and in accordance with the guidelines of the Animal Welfare Act and the Guide for the Care and Use of Laboratory Animals.
Immunoblotting was performed as previously described ([Umfress et al., 2021]). Mouse brains were rapidly dissected in an ice-cold solution of 50 mM NaF/PBS. The regions of interest were further dissected out and rapidly snap-frozen in dry ice. The frozen tissue was homogenized in boiling lysis buffer (1% SDS, 50 mM NaF) and sonicated with several three to four pulses at 40 dB. The samples were subsequently denatured at 90°C for 5 min. Protein concentration was determined by the BCA assay, and homogenates were diluted in 4x sample buffer, separated by SDS-PAGE, and transferred to 0.45-µm nitrocellulose membranes, blocked with 5% milk solution (1 h), and probed with primary antibodies (overnight). The following antibodies were used in the study: phospho-Ser549 synapsin I (Phosphosolutions), total synapsin I (Phosphosolutions), actin (Invitrogen), phospho-Ser1116 (in-house) ([Plattner et al., 2014]), and total NR2B (Phosphosolutions), phospho-Thr75, and total DARPP-32 (Cell Signaling Technology). Visualization was performed using the Licor CLX membrane scanner and Licor secondary antibodies.
Each of the four compounds tested in brain slices was further screened for their ability to penetrate the blood–brain barrier (BBB) and inhibit Cdk5-dependent activity in vivo. For these studies, cohorts of mice were treated with each compound via I.V. injection (50 mg/kg), and brain striatal lysates from various time points were subjected to quantitative immunoblot analysis for phosho-Ser549 Synapsin I levels. Three compounds, 20–107, 20–132, and 20–143, had no effect on Cdk5 activity compared to that of vehicle alone (data not shown). […] Moreover, this effect persisted even 24 h after dosing.

C57BL/6 mice = experiment: Open-field test; format: in vivo, mouse; conditions: 50 mg/kg
Method: The OFT was performed as described ([Chakraborti et al., 2021]). With the adaptation duration of the test being 1 h for each mouse, briefly, the mice were placed in a square box (40 cm × 40 cm) and allowed to freely explore. The center square portion of the maze was defined as the “open area.” Video tracking using EthoVision 16 software was used to track animal movement throughout the box and stereotypic and locomotive behaviors such as hopping, sniffing, and rearing. Total distance traveled, entries into the center of the maze, and duration in the center were tracked and analyzed in EthoVision.
To establish a functional effect of pharmacological Cdk5 inhibition in the brain, we tested mouse performance in two behavioral paradigms previously shown to be altered in Cdk5 knockout mice: the open-field maze and the tail suspension test ([Plattner et al., 2015]). The open-field maze was used to measure locomotion and anxiety-like behavior ([Cacace et al., 2011]; [Seibenhener and Wooten, 2015]). Mice were injected with either vehicle or 50 mg/kg of 25–106 and allowed to freely explore an open-field maze for 1 h with locomotor activity being tracked (Figure 7).

CDK5/p25, sequence (Q00535 whole entry, species assumed): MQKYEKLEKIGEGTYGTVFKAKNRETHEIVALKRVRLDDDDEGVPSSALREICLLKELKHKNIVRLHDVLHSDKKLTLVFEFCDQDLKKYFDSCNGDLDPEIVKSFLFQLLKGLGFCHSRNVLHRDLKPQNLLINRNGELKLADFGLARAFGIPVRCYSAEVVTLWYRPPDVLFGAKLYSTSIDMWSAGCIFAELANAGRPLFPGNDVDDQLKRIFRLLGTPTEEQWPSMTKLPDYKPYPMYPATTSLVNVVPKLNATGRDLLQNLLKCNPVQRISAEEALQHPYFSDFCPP
CDK5/p25, sequence (Q15078 99-307 partner limits assumed, species assumed): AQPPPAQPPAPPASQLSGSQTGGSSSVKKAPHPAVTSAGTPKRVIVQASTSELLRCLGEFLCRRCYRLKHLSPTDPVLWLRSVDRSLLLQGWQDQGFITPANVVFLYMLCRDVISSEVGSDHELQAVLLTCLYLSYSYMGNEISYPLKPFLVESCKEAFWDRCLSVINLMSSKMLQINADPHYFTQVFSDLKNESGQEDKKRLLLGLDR
T1 sequence (P49615 whole entry): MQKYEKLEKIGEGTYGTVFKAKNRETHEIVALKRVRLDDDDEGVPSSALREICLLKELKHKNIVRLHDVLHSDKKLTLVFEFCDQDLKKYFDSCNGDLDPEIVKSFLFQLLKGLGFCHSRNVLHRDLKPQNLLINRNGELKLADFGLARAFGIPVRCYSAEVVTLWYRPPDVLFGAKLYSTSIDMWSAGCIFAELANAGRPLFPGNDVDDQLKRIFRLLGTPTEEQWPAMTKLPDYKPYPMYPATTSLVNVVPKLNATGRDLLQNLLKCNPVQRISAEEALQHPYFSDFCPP
T1 sequence (P61809 2-307 partner limits assumed): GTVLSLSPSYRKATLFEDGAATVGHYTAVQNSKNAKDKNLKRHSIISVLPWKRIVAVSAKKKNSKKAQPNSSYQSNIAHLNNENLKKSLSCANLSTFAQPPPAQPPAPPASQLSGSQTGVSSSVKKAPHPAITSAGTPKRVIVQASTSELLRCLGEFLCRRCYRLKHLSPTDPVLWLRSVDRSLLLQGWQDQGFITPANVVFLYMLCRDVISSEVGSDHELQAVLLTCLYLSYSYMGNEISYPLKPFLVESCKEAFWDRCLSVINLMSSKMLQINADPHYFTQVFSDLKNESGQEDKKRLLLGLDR
Cdk9/CyclinT1, sequence (P50750 whole entry, species assumed): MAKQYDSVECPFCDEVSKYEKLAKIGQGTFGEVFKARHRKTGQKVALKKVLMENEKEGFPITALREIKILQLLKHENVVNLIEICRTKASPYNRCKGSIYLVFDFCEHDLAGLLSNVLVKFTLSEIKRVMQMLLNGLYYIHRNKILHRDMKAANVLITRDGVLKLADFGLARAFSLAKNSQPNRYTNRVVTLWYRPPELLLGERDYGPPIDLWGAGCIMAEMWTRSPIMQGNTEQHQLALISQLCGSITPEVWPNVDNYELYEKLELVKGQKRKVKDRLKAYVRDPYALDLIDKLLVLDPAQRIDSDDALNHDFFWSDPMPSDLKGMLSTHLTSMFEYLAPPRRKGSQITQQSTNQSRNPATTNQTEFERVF
Cdk9/CyclinT1, sequence (O60563 whole entry partner, species assumed): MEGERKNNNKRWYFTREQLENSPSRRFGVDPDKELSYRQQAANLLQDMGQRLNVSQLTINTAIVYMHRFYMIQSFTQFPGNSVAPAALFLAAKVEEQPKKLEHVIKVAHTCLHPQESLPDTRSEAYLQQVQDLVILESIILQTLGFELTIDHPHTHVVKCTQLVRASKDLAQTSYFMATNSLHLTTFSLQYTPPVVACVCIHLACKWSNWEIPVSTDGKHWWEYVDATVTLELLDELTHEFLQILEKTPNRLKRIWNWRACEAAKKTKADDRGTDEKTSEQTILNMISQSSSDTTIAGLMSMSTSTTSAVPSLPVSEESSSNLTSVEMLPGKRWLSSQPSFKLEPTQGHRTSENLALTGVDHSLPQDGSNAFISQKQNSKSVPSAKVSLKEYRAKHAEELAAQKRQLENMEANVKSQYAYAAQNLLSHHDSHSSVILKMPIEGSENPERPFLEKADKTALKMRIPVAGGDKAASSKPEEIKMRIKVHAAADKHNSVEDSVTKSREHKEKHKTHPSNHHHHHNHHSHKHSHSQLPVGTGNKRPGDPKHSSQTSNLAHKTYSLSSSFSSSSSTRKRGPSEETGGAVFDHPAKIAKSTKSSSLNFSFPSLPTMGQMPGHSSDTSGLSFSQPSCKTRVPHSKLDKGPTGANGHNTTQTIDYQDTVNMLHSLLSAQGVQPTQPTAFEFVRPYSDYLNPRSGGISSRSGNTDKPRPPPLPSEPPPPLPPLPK

- IC50 (Cdk2/CyclinE; 30 min, ATP 30 μM, read-out: IC50 CDK2/Cyclin E): 149 nM
- Ki (Cdk2/CyclinE; 30 min, ATP 30 μM, read-out: Ki CDK2/Cyclin E): 89 nM
- selectivity for Cdk2 than Cdk9 (Cdk2/CyclinE; in vitro kinase assay): greater than 30 fold
- IC50 (CDK5/p25; 30 min, ATP 30 μM, read-out: IC50 CDK5/P35): 178 nM
- Ki (CDK5/p25; 30 min, ATP 30 μM, read-out: Ki CDK5/P35): 107 nM
- selectivity for Cdk5 than Cdk9 (CDK5/p25; in vitro kinase assay): greater than 30 fold
- IC50 (Cdk9/CyclinT1; read-out: IC50 CDK9/Cyclin T1): 5710 nM
- Ki (Cdk9/CyclinT1; read-out: Ki CDK9/Cyclin T1): 3430 nM
- phospho-Ser549 synapsin I levels in the striatum (Cdk5; 2 h after injection): significantly reduced
- phospho-Ser549 synapsin I levels in the striatum (Cdk5; 24 h after dosing): persisted
- Cdk5-dependent phosphorylation in brain (Cdk5; 1 h post injection): remained unchanged
- striatal phospho-Ser549 synapsin I levels, dose-response (Cdk5; 24 h post injection, 10, 50, 100 and 200 mg/kg I.V., approximately equal efficacy): significant reduction
SMILES: COc1cc(CC(=O)Nc2cc(C3CCC3)[nH]n2)cc(OC)c1OC [25–106, N-(5-cyclobutyl-1H-pyrazol-3-yl)-2-(3,4,5-trimethoxyphenyl)acetamide]
- duration of time spent in the open portion of the maze vs. vehicle (C57BL/6 mice; 1 h after injection, 1 h test): longer duration of time
- entries into the open portion of the maze vs. vehicle (C57BL/6 mice; 1 h after injection, 1 h test): increased number of entries
- hopping bouts vs. vehicle (C57BL/6 mice; open-field testing): increased hopping bouts
- rearing behaviors vs. vehicle (C57BL/6 mice; open-field testing): increased rearing behaviors
- time sniffing vs. vehicle (C57BL/6 mice; open-field testing): increased time sniffing

— PMC9134315, “Systemic Administration of a Brain Permeable Cdk5 Inhibitor Alters Neurobehavior” (Frontiers in Pharmacology, 2022)
